Assay results from US8889712B2, “IAP antagonists” (Bristol-Myers Squibb Company, priority 2012, dated 2014).
pIC50: −log10 of the molar value. Read-outs that look alike come from different tables or passages of the source.

How the values were obtained:
XIAP BIR3 = target: T1, XIAP BIR3 (Homo sapiens, UniProt P98170); assay: XIAP-BIR3/SMAC Homogeneous Time Resolved Fluorescence (HTRF) Assay; format: binding
T1 construct: His-BIR3 (241-356, XIAP)
Summary of the method: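 Competition HTRF between XIAP-BIR3 and SMAC; reaction 60 min at room temperature, then anti-6×His-terbium Fab detection for a further 30 min.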

XIAP BIR2-3 = target: T2, XIAP BIR2-3 (Homo sapiens, UniProt P98170, C202A/C213G); assay: XIAP-BIR2-3 dimeric SMAC Peptide Homogeneous Time Resolved Fluorescence (HTRF) Assay; format: binding
T2 construct: His-BIR2-3 (125-356, C202A/C213G, XIAP)
T2 sequence (P98170 125-356 C202A/C213G): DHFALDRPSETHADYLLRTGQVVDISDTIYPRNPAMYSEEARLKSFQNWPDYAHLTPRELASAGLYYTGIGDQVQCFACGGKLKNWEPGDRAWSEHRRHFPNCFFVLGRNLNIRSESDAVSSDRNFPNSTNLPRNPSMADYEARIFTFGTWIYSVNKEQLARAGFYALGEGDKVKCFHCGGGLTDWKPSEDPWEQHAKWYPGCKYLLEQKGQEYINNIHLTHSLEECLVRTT
Protocol: B. […] Assays were performed in black, flat-bottom, 384-well plates. […] Compounds were dissolved at 3 mM in dimethylsulfoxide (DMSO) and evaluated at eleven serially diluted concentrations. IC50 and Ki values were derived by non-linear regression analysis.

[1] = 1 nM N-His-BIR3 (241-356, XIAP), 5 nM fluorescein labeled SMAC peptide, HTRF signal, read-out: XIAP BIR3 IC50
[2] = 0.5 nM N-His-BIR2-3 (125-356, C202A/C213G, XIAP), 20 nM fluorescein labeled dimeric SMAC peptide, HTRF signal, read-out: XIAP BIR2-3 IC50

T1 sequence (P98170 241-356): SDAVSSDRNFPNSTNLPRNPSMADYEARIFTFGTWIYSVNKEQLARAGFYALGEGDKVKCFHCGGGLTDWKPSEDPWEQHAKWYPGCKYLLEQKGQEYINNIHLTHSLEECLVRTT

Row | SMILES | pIC50 (XIAP BIR3; [1]) | pIC50 (XIAP BIR2-3; [2]) | pIC50 (XIAP BIR3) | pIC50 (XIAP BIR2-3)
1 | CN[C@@H](C)C(=O)N[C@H](C(=O)N1C[C@@H](c2ccc3c(c2)CN(C(=O)[C@@H](NC(=O)[C@H](C)NC)C(C)(C)C)[C@H](C(=O)N[C@@H]2CCCc4ccccc42)C3)C[C@H]1C(=O)N[C@@H](Cc1ccccc1)C(=O)NC1CC1)C(C)(C)C [Example 64, (S)-7-((3R,5S)-5-(((S)-1-(Cyclopropylamino)-1-oxo-3-phenylpropan-2-yl)carbamoyl)-1-((S)-3,3-dimethyl-2-((S)-2-(methylamino)propanamido)butanoyl)pyrrolidin-3-yl)-2-((S)-3,3-dimethyl-2-((S)-2-(methylamino)propanamido)butanoyl)-N-((R)-1,2,3,4-tetrahydronaphthalen-1-yl)-1,2,3,4-tetrahydroisoquinoline-3-carboxamide] | 7.59 | 8.42 |  | 
2 | CN[C@@H](C)C(=O)N[C@H](C(=O)N1Cc2cc([C@H]3C[C@@H](C(=O)N[C@@H]4CCCc5ccccc54)N(C(=O)[C@@H](NC(=O)[C@H](C)NC)C(C)(C)C)C3)ccc2C[C@H]1C(=O)Nc1cc(C)nn1-c1ccccc1)C(C)(C)C [Example 38, (S)-2-((S)-3,3-Dimethyl-2-((S)-2-(methylamino)propanamido)butanoyl)-7-((3R,5S)-1-((S)-3,3-dimethyl-2-((S)-2-(methylamino)propanamido)butanoyl)-5-(((R)-1,2,3,4-tetrahydronaphthalen-1-yl)carbamoyl)pyrrolidin-3-yl)-N-(3-methyl-1-phenyl-1H-pyrazol-5-yl)-1,2,3,4-tetrahydroisoquinoline-3-carboxamide] | 8.49 | 8.74 |  | 
3 | CN[C@@H](C)C(=O)N[C@H](C(=O)N1C[C@@H](c2ccc3c(c2)CN(C(=O)[C@@H](NC(=O)[C@H](C)NC)C(C)(C)SCC(=O)NCCO)[C@H](C(=O)N[C@@H]2CCCc4ccccc42)C3)C[C@H]1C(=O)N[C@@H]1CCCc2ccccc21)C(C)(C)C [Example 29, (S)-7-((3R,5S)-1-((S)-3,3-Dimethyl-2-((S)-2-(methylamino)propanamido)butanoyl)-5-(((R)-1,2,3,4-tetrahydronaphthalen-1-yl)carbamoyl)pyrrolidin-3-yl)-2-((R)-3-((2-((2-hydroxyethyl)amino)-2-oxoethyl)thio)-3-methyl-2-((S)-2-(methylamino)propanamido)butanoyl)-N—((R)-1,2,3,4-tetrahydronaphthalen-1-yl)-1,2,3,4-tetrahydroisoquinoline-3-carboxamide] | 7.93 | 9.10 |  | 
4 | CN[C@@H](C)C(=O)N[C@H](C(=O)N1Cc2cc([C@H]3C[C@@H](C(=O)N[C@@H]4CCCc5ccccc54)N(C(=O)[C@@H](NC(=O)[C@H](C)NC)C(C)(C)C)C3)ccc2C[C@H]1C(=O)N[C@H](COC)Cc1ccccc1)C(C)(C)C [Example 39, (S)-2-((S)-3,3-Dimethyl-2-((S)-2-(methylamino)propanamido)butanoyl)-7-((3R,5S)-1-((S)-3,3-dimethyl-2-((S)-2-(methylamino)propanamido)butanoyl)-5-(((R)-1,2,3,4-tetrahydronaphthalen-1-yl)carbamoyl)pyrrolidin-3-yl)-N-((S)-1-methoxy-3-phenylpropan-2-yl)-1,2,3,4-tetrahydroisoquinoline-3-carboxamide] | 8.14 | 8.25 |  | 
5 | CN[C@@H](C)C(=O)N[C@H](C(=O)N1C[C@@H](c2ccc3c(c2)CN(C(=O)[C@@H](NC(=O)[C@H](C)NC)C(C)(C)C)[C@H](C(=O)N[C@@H]2CCCc4ccccc42)C3)C[C@H]1C(=O)N[C@@H](Cc1ccccc1)C(=O)Nc1cccc(C#N)c1)C(C)(C)C [Example 59, (S)-7-((3R,5S)-5-(((S)-1-((3-Cyanophenyl)amino)-1-oxo-3-phenylpropan-2-yl)carbamoyl)-1-((S)-3,3-dimethyl-2-((S)-2-(methylamino)propanamido)butanoyl)pyrrolidin-3-yl)-2-((S)-3,3-dimethyl-2-((S)-2-(methylamino)propanamido)butanoyl)-N-((R)-1,2,3,4-tetrahydronaphthalen-1-yl)-1,2,3,4-tetrahydroisoquinoline-3-carboxamide] | 8.17 | 8.66 |  | 
6 | CN[C@@H](C)C(=O)N[C@H](C(=O)N1C[C@@H](c2ccc3c(c2)CN(C(=O)[C@@H](NC(=O)[C@H](C)NC)C(C)(C)SCCO)[C@H](C(=O)N[C@@H]2CCCc4ccccc42)C3)C[C@H]1C(=O)N[C@@H]1CCCc2ccccc21)C(C)(C)C [Example 28, (S)-7-((3R,5S)-1-((S)-3,3-Dimethyl-2-((S)-2-(methylamino)propanamido)butanoyl)-5-(((R)-1,2,3,4-tetrahydronaphthalen-1-yl)carbamoyl)pyrrolidin-3-yl)-2-((R)-3-((2-hydroxyethyl)thio)-3-methyl-2-((S)-2-(methylamino)propanamido)butanoyl)-N—((R)-1,2,3,4-tetrahydronaphthalen-1-yl)-1,2,3,4-tetrahydroisoquinoline-3-carboxamide] | 8.29 | 8.66 |  | 
7 | CN[C@@H](C)C(=O)N[C@H](C(=O)N1C[C@@H](NC(=O)c2ccc3c(c2)CN(C(=O)[C@@H](NC(=O)[C@H](C)NC)C24CC5CC(CC(O)(C5)C2)C4)[C@H](C(=O)NC2CCCc4ccccc42)C3)C[C@H]1C(=O)NC1CCCc2ccccc21)C(C)(C)C (stereo partly drawn) [Example 88, (S)-N^7-((3S,5S)-1-((S)-3,3-dimethyl-2-((S)-2-(methylamino)propanamido)butanoyl)-5-(((R)-1,2,3,4-tetrahydronaphthalen-1-yl)carbamoyl)pyrrolidin-3-yl)-2-((S)-2-((1r,3R,5R,7S)-3-hydroxyadamantan-1-yl)-2-((S)-2-(methylamino)propanamido)acetyl)-N^3-((R)-1,2,3,4-tetrahydronaphthalen-1-yl)-1,2,3,4-tetrahydroisoquinoline-3,7-dicarboxamide] | 8.05 | 8.59 |  | 
8 | CN[C@@H](C)C(=O)N[C@H](C(=O)N1Cc2cc([C@H]3C[C@@H](C(=O)N[C@@H](Cc4ccc5ccccc5c4)C(=O)O)N(C(=O)[C@@H](NC(=O)[C@H](C)NC)C(C)(C)C)C3)ccc2C[C@H]1C(=O)N[C@@H](Cc1ccc2ccccc2c1)C(=O)O)C(C)(C)C [Example 83, (S)-2-((S)-7-((3R,5S)-5-(((S)-1-Carboxy-2-(naphthalen-2-yl)ethyl)carbamoyl)-1-((S)-3,3-dimethyl-2-((S)-2-(methylamino)propanamido)butanoyl)pyrrolidin-3-yl)-2-((S)-3,3-dimethyl-2-((S)-2-(methylamino)propanamido)butanoyl)-1,2,3,4-tetrahydroisoquinoline-3-carboxamido)-3-(naphthalen-2-yl)propanoic acid] | 7.72 | 7.58 |  | 
9 | CN[C@@H](C)C(=O)N[C@H](C(=O)N1Cc2ccc(C(=O)N[C@H]3C[C@@H](C(=O)N[C@@H]4CCCc5ccccc54)N(C(=O)[C@@H](NC(=O)[C@H](C)NC)C(C)(C)C)C3)cc2C[C@@H]1C(=O)N[C@@H]1CCCc2ccccc21)C(C)(C)C [Example 26, (R)-2-((S)-3,3-Dimethyl-2-((S)-2-(methylamino)propanamido)butanoyl)-N6-((3S,5S)-1-((S)-3,3-dimethyl-2-((S)-2-(methylamino)propanamido)butanoyl)-5-(((R)-1,2,3,4-tetrahydronaphthalen-1-yl)carbamoyl)pyrrolidin-3-yl)-N^3—((R)-1,2,3,4-tetrahydronaphthalen-1-yl)-1,2,3,4-tetrahydroisoquinoline-3,6-dicarboxamide] | 7.96 | 6.71 |  | 
10 | CN[C@@H](C)C(=O)N[C@H](C(=O)N1Cc2cc(NC(=O)[C@H]3C[C@@H](C(=O)N[C@@H]4CCCc5ccccc54)N(C(=O)[C@@H](NC(=O)[C@H](C)NC)C(C)(C)C)C3)ccc2C[C@H]1C(=O)N[C@@H]1CCCc2ccccc21)C(C)(C)C [Example 27, (2S,4S)-1-((S)-3,3-Dimethyl-2-((S)-2-(methylamino)propanamido)butanoyl)-N^4—((S)-2-((S)-3,3-dimethyl-2-((S)-2-(methylamino)propanamido)butanoyl)-3-(((R)-1,2,3,4-tetrahydronaphthalen-1-yl)carbamoyl)-1,2,3,4-tetrahydroisoquinolin-7-yl)-N^2—((R)-1,2,3,4-tetrahydronaphthalen-1-yl)pyrrolidine-2,4-dicarboxamide] |  |  | 8.30 | 9.00
11 | CN[C@@H](C)C(=O)N[C@H](C(=O)N1Cc2cc([C@H]3C[C@@H](C(=O)N[C@@H]4CCCc5ccccc54)N(C(=O)[C@@H](NC(=O)[C@H](C)NC)C(C)(C)C)C3)ccc2C[C@H]1C(=O)N[C@@H]1CCCc2ccccc21)C1CCOCC1 [Example 24, (S)-7-((3R,5S)-1-((S)-3,3-Dimethyl-2-((S)-2-(methylamino)propanamido)butanoyl)-5-(((R)-1,2,3,4-tetrahydronaphthalen-1-yl)carbamoyl)pyrrolidin-3-yl)-2-((S)-2-((S)-2-(methylamino)propanamido)-2-(tetrahydro-2H-pyran-4-yl)acetyl)-N—((R)-1,2,3,4-tetrahydronaphthalen-1-yl)-1,2,3,4-tetrahydroisoquinoline-3-carboxamide] | 8.52 | 9.00 |  | 
